Laboratory results from patent US20130190289A1, “COMPOUNDS AND METHODS FOR THE TREATMENT OR PREVENTION OF FLAVIVIRUS INFECTIONS” (priority 2010, published 2013).
Read-outs that look alike come from different tables or passages of the source.

Experiments:
[1] = system: HCV replicon (genotype 1b) in Huh7 cell line ET; assay: microbe, parasite or virus in culture; type: cell-based, HCV genotype 1b; details: Hepatitis C virus
[2] = [3H]Thymidine incorporation assay (cell toxicity); details: human
[3] = Huh-7, read-out: HCV-Replicon-(Luci-ET) 1b_IC50
[4] = Huh-7, 96 h, read-out: HCV-Replicon (Luci-ET)-1b_IC50

Row | Compound | IC50 [1, 3] [nM] | CC50 at 72 h [2] [nM] | IC50 [1, 4] [nM]
1 | CC[C@@H](C(=O)N(C)CC1CCOC1)N(c1cc(C#CC(C)(C)C)sc1C(=O)O)C(=O)[C@H]1CC[C@H](C)CC1 (stereo partly drawn) [Compound 80, 5-(3,3-Dimethylbut-1-ynyl)-3-[(trans-4-methylcyclohexanecarbonyl)-[(1S)-1-[methyl(tetrahydrofuran-3-ylmethyl)carbamoyl]propyl]amino]thiophene-2-carboxylic acid] | < 100 | > 100000 | –
2 | C[C@@H](C(=O)N(C)C1CCOCC1)N(c1cc(C#CC(C)(C)C)sc1C(=O)O)C(=O)[C@H]1CC[C@H](C)CC1 [Compound 51, 5-(3,3-Dimethylbut-1-ynyl)-3-[(trans-4-methylcyclohexanecarbonyl)-[(1S)-1-methyl-2-[methyl(tetrahydropyran-4-yl)amino]-2-oxo-ethyl]amino]thiophene-2-carboxylic acid] | < 100 | > 100000 | –
3 | CN(C)C(=O)[C@H](CO)N(c1cc(C#CC(C)(C)C)sc1C(=O)O)C(=O)[C@H]1CC[C@H](C)CC1 [Compound 34, 3-[[(1S)-2-(dimethylamino)-1-(hydroxymethyl)-2-oxo-ethyl]-(trans-4-methylcyclohexanecarbonyl)amino]-5-(3,3-dimethylbut-1-ynyl)thiophene-2-carboxylic acid] | < 100 | > 100000 | –
4 | CC[C@@H](C(=O)N1CCOCC1)N(c1cc(-c2ccccc2)sc1C(=O)O)C(=O)[C@H]1CC[C@H](C)CC1 [Compound 126, 3-[(trans-4-methylcyclohexanecarbonyl)-[(1S)-1-(morpholine-4-carbonyl)propyl]amino]-5-phenyl-thiophene-2-carboxylic acid] | – | > 100000 | 100 to 1000
5 | CC(C)NC(=O)CN(c1cc(C#CC(C)(C)C)sc1C(=O)O)C(=O)[C@H]1CC[C@H](C)CC1 [Compound 73, 5-(3,3-dimethylbut-1-ynyl)-3-[[2-(isopropylamino)-2-oxo-ethyl]-(trans-4-methylcyclohexanecarbonyl)amino]thiophene-2-carboxylic acid] | < 100 | > 100000 | –
6 | CO[C@@H](C)[C@@H](C(=O)N(C)C)N(c1cc(C#CC(C)(C)C)sc1C(=O)O)C(=O)[C@H]1CC[C@H](C)CC1 [Compound 66, 5-(3,3-Dimethylbut-1-ynyl)-3-[[(1S,2S)-1-(dimethylcarbamoyl)-2-methoxy-propyl]-(trans-4-methylcyclohexanecarbonyl)amino]thiophene-2-carboxylic acid] | < 100 | > 100000 | –
7 | CN(C(=O)CN(c1cc(C#CC(C)(C)C)sc1C(=O)O)C(=O)[C@H]1CC[C@H](C)CC1)C1CCOCC1 [Compound 43] | < 100 | > 100000 | –
8 | CCC#Cc1cc(N(CC(=O)N2CCOCC2)C(=O)[C@H]2CC[C@H](C)CC2)c(C(=O)O)s1 [Compound 132, 5-But-1-ynyl-3-[(trans-4-methylcyclohexanecarbonyl)-(2-morpholino-2-oxo-ethyl)amino]thiophene-2-carboxylic acid] | – | > 100000 | 100 to 1000
9 | CC(C)(C)C#Cc1cc(N(C(=O)[C@H]2CC[C@H](C)CC2)[C@H]2CCNC2=O)c(C(=O)O)s1 [Compound 120, 5-(3,3-dimethylbut-1-ynyl)-3-[(trans-4-methylcyclohexanecarbonyl)-[(3S)-2-oxopyrrolidin-3-yl]amino]thiophene-2-carboxylic acid] | 100 to 1000 | – | –
10 | O=C(O)c1sc(-c2ccc(Oc3ccccc3)cc2)cc1N(CC(=O)N1CCOCC1)C(=O)c1ccc(Cl)cc1Cl [Compound 152, 3-[(2,4-dichlorobenzoyl)-(2-morpholino-2-oxo-ethyl)amino]-5-(4-phenoxyphenyl)thiophene-2-carboxylic acid] | – | 10000 to 100000 | 1000 to 10000
11 | CC1CN(C(=O)CN(c2cc(C#CC(C)(C)C)sc2C(=O)O)C(=O)[C@H]2CC[C@H](C)CC2)CCO1 (some centres unmarked) [Compound 26] | < 100 | 10000 to 100000 | –
12 | CC[C@@H](C(=O)N(C)CCO)N(c1cc(C#CC(C)(C)C)sc1C(=O)O)C(=O)[C@H]1CC[C@H](C)CC1 [Compound 77, 5-(3,3-Dimethylbut-1-ynyl)-3-[[(1S)-1-[2-hydroxyethyl(methyl)carbamoyl]propyl]-(trans-4-methylcyclohexanecarbonyl)amino]thiophene-2-carboxylic acid] | < 100 | > 100000 | –
13 | C[C@@H](C(=O)N1CCCC1)N(c1cc(C#CC(C)(C)C)sc1C(=O)O)C(=O)[C@H]1CC[C@H](C)CC1 [Compound 9, 5-(3,3-Dimethylbut-1-ynyl)-3-[(trans-4-methylcyclohexanecarbonyl)-[(1S)-1-methyl-2-oxo-2-pyrrolidin-1-yl-ethyl]amino]thiophene-2-carboxylic acid] | < 100 | > 100000 | –
14 | COCCN(C)C(=O)C[C@H](C)N(c1cc(C#CC(C)(C)C)sc1C(=O)O)C(=O)[C@H]1CC[C@H](C)CC1 [Compound 114, 5-(3,3-Dimethylbut-1-ynyl)-3-[[(1S)-3-[2-methoxyethyl(methyl)amino]-1-methyl-3-oxo-propyl]-(trans-4-methylcyclohexanecarbonyl)amino]thiophene-2-carboxylic acid] | < 100 | > 100000 | –
15 | COCCN(C)C(=O)[C@H](C)N(c1cc(C#CC(C)(C)C)sc1C(=O)O)C(=O)[C@H]1CC[C@H](C)CC1 [Compound 38, 5-(3,3-Dimethylbut-1-ynyl)-3-[[(1S)-2-[2-methoxyethyl(methyl)amino]-1-methyl-2-oxo-ethyl]-(trans-4-methylcyclohexanecarbonyl)amino]thiophene-2-carboxylic acid] | < 100 | > 100000 | –
16 | C[C@@H](C(=O)NC1CCC(O)CC1)N(c1cc(C#CC(C)(C)C)sc1C(=O)O)C(=O)[C@H]1CC[C@H](C)CC1 (stereo partly drawn) [Compound 31, 5-(3,3-Dimethylbut-1-ynyl)-3-[[(1S)-2-[(4-hydroxycyclohexyl)amino]-1-methyl-2-oxo-ethyl]-(trans-4-methylcyclohexanecarbonyl)amino]thiophene-2-carboxylic acid] | < 100 | > 100000 | –
17 | CCC1CCC(C(=O)N(c2cc(C#CC(C)(C)C)sc2C(=O)O)[C@@H](COC)C(=O)N2CCCC2)CC1 (stereo partly drawn) [Compound 63, 5-(3,3-Dimethylbut-1-ynyl)-3-[(4-ethylcyclohexanecarbonyl)-[(1S)-1-(methoxymethyl)-2-oxo-2-pyrrolidin-1-yl-ethyl]amino]thiophene-2-carb oxylic acid] | 100 to 1000 | 10000 to 100000 | –
18 | CN(C)CCN(C)C(=O)CN(c1cc(C#CC(C)(C)C)sc1C(=O)O)C(=O)[C@H]1CC[C@H](C)CC1 [Compound 118, 3-[[2-[2-Dimethylaminoethyl(methyl)amino]-2-oxo-ethyl]-(trans-4-methylcyclohexanecarbonyl)amino]-5-(3,3-dimethylbut-1-ynyl)thiophene-2-carboxylic acid] | < 100 | – | –
19 | CN1CCN(C(=O)CN(c2cc(C#CC(C)(C)C)sc2C(=O)O)C(=O)[C@H]2CC[C@H](C)CC2)CC1 [Compound 119, 5-(3,3-dimethylbut-1-ynyl)-3-[(trans-4-methylcyclohexanecarbonyl)-[2-(4-methylpiperazin-1-yl)-2-oxo-ethyl]amino]thiophene-2-carboxylic acid] | < 100 | – | –
